{
  "source": "patent US12686727B2",
  "about": "“Antibodies for binding plasmin” (MONASH UNIVERSITY, priority 2019, dated 2026)",
  "molecules": {"B1": {"name": "alpha-2-antiplasmin (protein)", "chain": "NQEQVSPLTLLKLGNQEPGGQTALKSPPGVCSRDPTPEQTHRLARAMMAFTADLFSLVAQTSTCPNLILSPLSVALALSHLALGAQNHTLQRLQQVLHAGSGPCLPHLLSRLCQDLGPGAFRLAARMYLQKGFPIKEDFLEQSEQLFGAKPVSLTGKQEDDLANINQWVKEATEGKIQEFLSGLPEDTVLLLLNAIHFQGFWRNKFDPSLTQRDSFHLDEQFTVPVEMMQARTYPLRWFLLEQPEIQVAHFPFKNNMSFVVLVPTHFEWNVSQVLANLSWDTLHPPLVWERPTKVRLPKLYLKHQMDLVATLSQLGLQELFQAPDLRGISEQSLVVSGVQHQSTLELSEVGVEAAAATSIAMSRMSLSSFSVNRPFLFFIFEDTTGLPLFVGSVRNPNPSAPRELKEQQDSPGNKDFLQSLKGFPRGDKLFGPDLKLVPPMEEDYPQFGSPK"}},
  "test_system": "whole blood clots",
  "experiment": "Whole blood clot lysis induced by tPA",
  "type": "cell-based, human",
  "details": "for inhibition of clot lysis at high concentrations: up to 1,000 nM",
  "procedure": "Whole blood clots were formed from human blood collected from healthy donors. Halo-shaped clots were generated by mixing whole blood with 15% of a mixture containing recombinant tissue factor supplemented with synthetic phospholipids Dade Innovin, Siemens Germany and 67 mM CaCl2 in HBS at 1:4 ratio. The plate was sealed and incubated at 37° C. for 60 min before use.\nClot lysis was induced by the addition of tPA to 7 nM and antibodies or Plm inhibitors at the following concentrations: 0-312.5 nM B10; 0-1000 nM α2AP; 0-1000 nM aprotinin; 0-7.5 mM TXA. Clot lysis leads to an […] of turbidity and was monitored at OD610 nm using a plate reader.\nThe time required to achieve 50% clot lysis was used for IC50 calculation. […] B10 was more than 180-fold more efficacious than TXA (not shown).",
  "data": [
    {"molecule": "Aprotinin [reference compound]", "values": [
      {"measurement": "inhibition of clot lysis at high concentrations", "value": "only partially inhibit clot lysis"}
    ]},
    {"molecule": "NC[C@H]1CC[C@H](C(=O)O)CC1", "note": "[TXA, tranexamic acid, reference compound]", "values": [
      {"measurement": "concentration of total inhibition of clot lysis", "setting": "7 nM tPA, data not shown", "value": "≥ 300", "unit": "µM"},
      {"measurement": "effect on clot lysis", "setting": "concentration up to 100 μM", "value": "delayed clot lysis"}
    ]},
    {"molecule": "B1", "values": [
      {"measurement": "inhibition of clot lysis at high concentrations", "value": "only partially inhibit clot lysis"}
    ]}
  ]
}
